Data set [1] deals with T1, PAK4 (Homo sapiens, UniProt O96013).
T1 construct: purchased Sigma-Aldrich
Description: PAK4 HTRF kinase assay. In kind it is biochemical. (In TR-FRET formats the signal depends on donor and acceptor labels being close together.)

Data set [2] relates to A549 cells. Description: Transwell cell migration assay. Format: cell-based, human. Particulars: 24 h. As for the experimental part: (§1) We next examined the effects of compound 8d on the cycle progression of A549. Cells were treated with compound 8d at varying concentrations (1.0, 3.0, 9.0 μM) and vehicle (dimethyl sulfoxide−DMSO) for 24 h, and subjected to flow cytometry analysis to determine the distribution of cells in various phases of the cell cycle. […] PAK4 activity is involved in cytoskeleton dynamics and cancer cell migration and invasion; therefore, the inhibitory effect of 8d on A549 cell migration and invasion were analyzed.
(§2) Cell migration assays were evaluated in transwell chambers (Corning Incorporated, Corning, NY, USA). Cell invasion assays were evaluated in Matrigel invasion chambers (Becton-Dickinson). First, 0.5 × 10^5 tumor cells were plated in the top chamber with RPMI-1640 medium without FBS. Test compound was added to the bottom chamber with 500 µL medium containing 20% FBS. After incubation for 24 h at 37 °C, the cells were fixed in 100% methanol and stained with 0.1% crystal violet, then washed with PBS; the cells that had not migrated from the top surface of the filters were removed with cotton. Migrated cells were quantified by counting them in three randomly selected fields on the diameter under a microscope at 200× magnification

Data set [3] relates to A549 cells. The experiment in a line: Matrigel cell invasion assay. Format: cell-based, human. Particulars: A549, Matrigel chamber, 24 h. The protocol:
as §1, §2

Data set [4] concerns HT1080. Description: MTT cell proliferation assay, HT1080. In kind it is cell-based, human. Particulars: for IC50: Homo sapiens, HT-1080, 50% cell growth inhibition after 24 h of drug exposure, MTT assay; for Activity against HT1080 (off-target check): growth not dependent on PAK4. The protocol: (§3) Meanwhile, the tumor cell line HT1080, whose growth is not dependent on PAK4, was used to test the potential off-target effects of the potent PAK4 inhibitors.
(§4) The human pulmonary carcinoma cell line A549 and the human fibrosarcoma cell line HT1080 were cultured in RPMI-1640 medium containing 10% fetal bovine serum (FBS), at 37 °C in a humidified atmosphere containing 5% CO2.
(§5) The in vitro antiproliferative activity of some of the target compounds was determined by the MTT assay (Amresco, Seattle, WA, USA). A suspension of 100 µL human cancer cells (5 × 10^4/mL) was plated in a 96-well cell culture plate and incubated with 5% CO2 at 37 °C for 24 h. Then cells were exposed to various concentrations of compounds and further cultured for 24 h. After that, MTT was added and absorbance was measured at 490 nm using a EL × 800 microplate reader (BioTek, Winooski, VT, USA). Dose-response curves were plotted to determine the IC50 values using GraphPad Prism 5.0. Each IC50 value was expressed as mean ± standard deviation.
(In general: Tetrazolium dyes change colour on reduction, which living cells bring about.)

For data set [5], the system named is A549 cell line. The experiment in a line: MTT cell proliferation assay, A549. Particulars: Homo sapiens, 50% cell growth inhibition after 24 h of drug exposure. Format: cell-based. The protocol:
as §3, §4, §5

Data set [6] deals with human gastric cancer cells. More on the design: method as in PMID 22085492. Particulars: cited from earlier work.

T1 sequence (O96013 whole entry): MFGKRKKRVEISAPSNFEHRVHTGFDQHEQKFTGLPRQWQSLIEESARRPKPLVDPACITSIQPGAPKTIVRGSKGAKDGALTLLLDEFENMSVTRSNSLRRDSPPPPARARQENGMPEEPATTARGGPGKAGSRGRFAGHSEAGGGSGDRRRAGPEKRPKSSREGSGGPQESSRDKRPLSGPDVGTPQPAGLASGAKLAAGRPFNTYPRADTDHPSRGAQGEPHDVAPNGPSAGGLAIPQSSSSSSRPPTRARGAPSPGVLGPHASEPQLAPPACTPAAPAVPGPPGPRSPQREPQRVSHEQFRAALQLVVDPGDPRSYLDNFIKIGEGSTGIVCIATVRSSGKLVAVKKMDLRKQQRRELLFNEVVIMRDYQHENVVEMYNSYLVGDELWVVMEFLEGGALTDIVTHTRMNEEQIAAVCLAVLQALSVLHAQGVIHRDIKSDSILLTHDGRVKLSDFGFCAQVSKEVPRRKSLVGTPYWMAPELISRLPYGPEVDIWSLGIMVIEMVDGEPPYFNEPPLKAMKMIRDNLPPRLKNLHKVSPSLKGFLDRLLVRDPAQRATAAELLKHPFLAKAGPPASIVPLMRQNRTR

As a reminder, the IC50 is the concentration at which inhibition is half-maximal. Broadly, the melting point is the temperature of the solid-liquid transition. In the case of `Clc1ccc2nc(N3CCC(N4CCCCC4)CC3)nc(Nc3cc(C4CC4)[nH]n3)c2c1` [Compound 6a, ([1,4′-Bipiperidin]-1′-yl)-6-chloro-N-(5-cyclopropyl-1H-pyrazol-3-yl)quinazolin-4-amine], the melting point lay within 208.3 to 209.6 °C. This compound registered an IC50 in data set [1] of 440 nM.
`Clc1ccc2nc(N3CCC(N4CCOCC4)CC3)nc(Nc3cc(C4CC4)[nH]n3)c2c1` [Compound 6b] displayed a melting point of 214.3 to 216.6 °C. For the same compound, in data set [1], half-maximal inhibition (IC50) required 560 nM.
In the case of `Clc1ccc2nc(N3CCN(c4ccccc4)CC3)nc(Nc3cc(C4CC4)[nH]n3)c2c1` [Compound 7a, 6-Chloro-N-(5-cyclopropyl-1H-pyrazol-3-yl)-2-(4-phenylpiperazin-1-yl)quinazolin-4-amine], the melting point lay within 239.5 to 240.8 °C. Half-maximal inhibition in data set [1] (IC50) was put at 850 nM.
Taken in the same sequence, the figures for `Cc1ccc(N2CCN(c3nc(Nc4cc(C5CC5)[nH]n4)c4cc(Cl)ccc4n3)CC2)cc1` [Compound 7b, 6-Chloro-N-(5-cyclopropyl-1H-pyrazol-3-yl)-2-(4-(p-tolyl)piperazin-1-yl)quinazolin-4-amine] were 204.9 to 207.5 °C and 240 nM.
As to `Clc1ccc2nc(N3CCN(c4ccc(Br)cc4)CC3)nc(Nc3cc(C4CC4)[nH]n3)c2c1` [Compound 7c, 2-(4-(4-Bromophenyl)piperazin-1-yl)-6-chloro-N-(5-cyclopropyl-1H-pyrazol-3-yl)quinazolin-4-amine], the melting point lay within 248.7 to 251.9 °C. The compound also yielded an IC50 in data set [1] of 100 nM.
As to `FC(F)(F)c1ccc(N2CCN(c3nc(Nc4cc(C5CC5)[nH]n4)c4cc(Cl)ccc4n3)CC2)cc1` [Compound 7d, 6-Chloro-N-(5-cyclopropyl-1H-pyrazol-3-yl)-2-(4-(4-(trifluoromethyl)phenyl)piperazin-1-yl)quinazolin-4-amine], the melting point was in the range of 256.4 to 257.8 °C. Also, 650 nM corresponded to half-maximal inhibition in data set [1] (IC50).
Taken in the same sequence, the figures for `Clc1ccc(N2CCN(c3nc(Nc4cc(C5CC5)[nH]n4)c4cc(Cl)ccc4n3)CC2)cc1` [Compound 7e, 6-Chloro-2-(4-(4-chlorophenyl)piperazin-1-yl)-N-(5-cyclopropyl-1H-pyrazol-3-yl)quinazolin-4-amine] were 250 to 251.8 °C and 160 nM.
For `Clc1cccc(N2CCN(c3nc(Nc4cc(C5CC5)[nH]n4)c4cc(Cl)ccc4n3)CC2)c1` [Compound 7f, 6-Chloro-2-(4-(3-chlorophenyl)piperazin-1-yl)-N-(5-cyclopropyl-1H-pyrazol-3-yl)quinazolin-4-amine] the same measures were 229.9 to 232.6 °C and 490 nM.
`COc1ccc(N2CCN(c3nc(Nc4cc(C5CC5)[nH]n4)c4cc(Cl)ccc4n3)CC2)cc1` [Compound 7g, 6-Chloro-N-(5-cyclopropyl-1H-pyrazol-3-yl)-2-(4-(4-methoxyphenyl)piperazin-1-yl)quinazolin-4-amine] returned a melting point of 237.1 to 239.5 °C. The midpoint of inhibition in data set [1], the IC50, lay at 300 nM.
Taken in the same sequence, the figures for `COc1cccc(N2CCN(c3nc(Nc4cc(C5CC5)[nH]n4)c4cc(Cl)ccc4n3)CC2)c1` [Compound 7h, 6-Chloro-N-(5-cyclopropyl-1H-pyrazol-3-yl)-2-(4-(3-methoxyphenyl)piperazin-1-yl)quinazolin-4-amine] were 199.9 to 201.8 °C and 690 nM.
In turn, `Fc1ccc(N2CCN(c3nc(Nc4cc(C5CC5)[nH]n4)c4cc(Cl)ccc4n3)CC2)cc1` [Compound 7i, 6-Chloro-N-(5-cyclopropyl-1H-pyrazol-3-yl)-2-(4-(4-fluorophenyl)piperazin-1-yl)quinazolin-4-amine] had a melting point of 228.8 to 231 °C. 200 nM corresponded to half-maximal inhibition in data set [1] (IC50).
As for `Clc1ccc2nc(N3CCN(c4ccccn4)CC3)nc(Nc3cc(C4CC4)[nH]n3)c2c1` [Compound 8a, 6-Chloro-N-(5-cyclopropyl-1H-pyrazol-3-yl)-2-(4-(pyridin-2-yl)piperazin-1-yl)quinazolin-4-amine], the melting point lay in the range of 184.4 to 186.7 °C. The IC50 in data set [1] was found to be 310 nM.
For `COc1ccnc(N2CCN(c3nc(Nc4cc(C5CC5)[nH]n4)c4cc(Cl)ccc4n3)CC2)c1` [Compound 8b, 6-Chloro-N-(5-cyclopropyl-1H-pyrazol-3-yl)-2-(4-(4-methoxypyridin-2-yl)piperazin-1-yl)quinazolin-4-amine] the same measures were 210.3 to 211.6 °C and 380 nM.
Taken in the same sequence, the figures for `Cc1ccc(N2CCN(c3nc(Nc4cc(C5CC5)[nH]n4)c4cc(Cl)ccc4n3)CC2)nc1` [Compound 8c, 6-Chloro-N-(5-cyclopropyl-1H-pyrazol-3-yl)-2-(4-(5-methylpyridin-2-yl)piperazin-1-yl)quinazolin-4-amine] were 263 to 265.4 °C and 87 nM.
Consider `Clc1ccc2nc(N3CCN(c4ccc(Br)cn4)CC3)nc(Nc3cc(C4CC4)[nH]n3)c2c1` [Compound 8d, 2-(4-(5-Bromopyridin-2-yl)piperazin-1-yl)-6-chloro-N-(5-cyclopropyl-1H-pyrazol-3-yl)quinazolin-4-amine], for which the melting point was in the range of 270.5 to 272.8 °C. In addition, the “Effect on cell migration” value in data set [2] was “decreased the migration and invasion potential”. In data set [1], this compound returned an IC50 of 60 nM. Moreover, the “Effect on cell invasion” value in data set [3] is “decreased the migration and invasion potential”. In data set [4], the IC50 was 21500 nM and the “Activity against HT1080 (off-target check)” value is on record as “negligible activity”. This compound had an IC50 in data set [5] of 4680 nM.
In turn, `FC(F)(F)c1ccc(N2CCN(c3nc(Nc4cc(C5CC5)[nH]n4)c4cc(Cl)ccc4n3)CC2)nc1` [Compound 8e, 6-Chloro-N-(5-cyclopropyl-1H-pyrazol-3-yl)-2-(4-(5-(trifluoromethyl)pyridin-2-yl)piperazin-1-yl)quinazol-in-4-amine] returned a melting point of 247.6 to 259.6 °C. The compound further displayed an IC50 in data set [1] of 220 nM.
The compound `Clc1ccc2nc(N3CCN(c4ncccn4)CC3)nc(Nc3cc(C4CC4)[nH]n3)c2c1` [Compound 9a, 6-Chloro-N-(5-cyclopropyl-1H-pyrazol-3-yl)-2-(4-(pyrimidin-2-yl)piperazin-1-yl)quinazolin-4-amine] gave a melting point of 249.3 to 250.5 °C. The compound further yielded an IC50 in data set [1] of 380 nM.
Taken in the same sequence, the figures for `Cc1cnc(N2CCN(c3nc(Nc4cc(C5CC5)[nH]n4)c4cc(Cl)ccc4n3)CC2)nc1` [Compound 9b, 6-Chloro-N-(5-cyclopropyl-1H-pyrazol-3-yl)-2-(4-(5-methylpyrimidin-2-yl)piperazin-1-yl)quinazolin-4-amine] were 262.8 to 264.7 °C and 110 nM.
The compound `Clc1ccc2nc(N3CCN(c4ncc(Br)cn4)CC3)nc(Nc3cc(C4CC4)[nH]n3)c2c1` [Compound 9c, 2-(4-(5-Bromopyrimidin-2-yl)piperazin-1-yl)-6-chloro-N-(5-cyclopropyl-1H-pyrazol-3-yl)quinazolin-4-amine] displayed a melting point of 280.6 to 282.7 °C. Besides, 68 nM corresponded to half-maximal inhibition in data set [1] (IC50). In addition, in data set [4], the IC50 amounted to 39300 nM and the “Activity against HT1080 (off-target check)” value was “negligible activity”. The compound further yielded an IC50 in data set [5] of 4750 nM.
As for `COc1cccc(Nc2nc(NCC3CCCO3)c3ccccc3n2)c1` (centres unmarked) [LCH-7749944, N^2-(3-methoxyphenyl)-N^4-((tetrahydrofuran-2-yl)methyl)quinazoline-2,4-diamine], in data set [6], the “Effect on proliferation, migration, and invasion” value is recorded as “effectively suppressed”.

The record behind these values is article PMC6100240, “Discovery of 2-(4-Substituted-piperidin/piperazine-1-yl)-N-(5-cyclopropyl-1H-pyrazol-3-yl)-quinazoline-2,4-diamines as PAK4 Inhibitors with Potent A549 Cell Proliferation, Migration, and Invasion Inhibition Activity” (Molecules : A Journal of Synthetic Chemistry and Natural …, 2018).
